Reference: US9056835B2, “LPA2 receptor-specific benzoic acid derivatives” (University of Tennessee Research Foundation, priority 2012, dated 2015)

Assays:
MM1 hepatoma cells = assay: MM1 hepatoma cell invasion of endothelial monolayer; type: cell-based, rat; settings: LPA 1 μM, GRI977143 10 μM, 20 h
Method: Mouse embryonic fibroblast (MEF) cells were isolated from E13.5 LPA1&2 double knockout (DKO) embryos. MEFs were transduced with empty vector or LPA2-containing lentiviruses and selected with 1.5 μg/ml puromycin. Cells were maintained in Dulbecco's modified Eagle medium (DMEM) supplemented with 10% (V/V) fetal bovine serum (FBS), 2 mM L-glutamine, 100 U/mL penicillin, and 100 μg/mL streptomycin. Serum-free medium contained 0.1% (W/V) BSA in DMEM. The rat intestinal epithelial cell line 6 (IEC-6) was obtained from the American Type Culture Collection (Rockville, Md.) at passage 13; passages 16-21 were used in all experiments. IEC-6 cells were maintained in a humidified 37° C. incubator in an atmosphere of 90% air and 10% CO2. Growth medium consisted of DMEM supplemented with 5% heat inactivated FBS, 10 μg/mL insulin, and 50 μg/mL gentamycin. […]
HUVEC (1.3×10^5 cells at passages 5 to 7) were seeded into each well of a 12-well plate pre-coated with 0.2% gelatin (Sigma-Aldrich). […] Tumor cells that penetrated the monolayer were photographed using a NIKON TiU inverted microscope with phase-contrast and fluorescence illumination. […] A total of five non-overlapping fields was imaged per well, and the number of invaded MM1 cells (displaying a flattened morphology underneath the monolayer) was counted.

PARP-1 = assay: Immunoblot, PARP-1 cleavage; type: cell-based, mouse; settings: 10 μM
Method: (§1) Experiments were performed on vector- and LPA2-transduced MEF cells. To measure caspase 3, 7, 8, or 9 activity and DNA fragmentation, cells were plated in 48-well plates (2×10^4 cells/well). To detect PARP-1 cleavage and Bax translocation, 1.5×10^6 cells were plated in 10-cm dishes and cultured overnight in full growth medium. The next morning, the growth medium was replaced by serum-starvation medium and cells were pretreated for 1 h with LPA (1-10 μM), OTP (1-10 μM), GRI977143 (1-10 μM), or vehicle. Caspase activity, DNA fragmentation, PARP-1 cleavage, and Bax translocation were measured 5 h after incubation with 1.7 μM Adriamycin or 24 h after serum withdrawal.
To detect ligand-induced ERK1/2 activation, vector- and LPA2-transfected MEF cells were serum starved 3 h before exposure to 1 μM LPA, 1 μM OTP, 10 μM GRI977143, or vehicle for 10 min. For ERK1/2 activation and PARP-1 cleavage measurements, cells were harvested in 1× Laemmli sample buffer and separated using 12% Laemmli SDS-polyacrylamide gels. To assess Bax translocation, cell lysates were separated into cytosolic, mitochondrial, and nuclear fractions using the Cell Fractionation Kit-Standard (MitoSciences; Eugene, Oreg.). […] Samples were boiled for 5 min and loaded onto 12% SDS-polyacrylamide gels. Western blotting was carried out as previously described (Valentine et al., 2010). […]

Bax = assay: Immunoblot, Bax translocation; type: cell-based, mouse; settings: 10 μM
Method: as §1
To detect ligand-induced ERK1/2 activation, vector- and LPA2-transfected MEF cells were serum starved 3 h before exposure to 1 μM LPA, 1 μM OTP, 10 μM GRI977143, or vehicle for 10 min. For ERK1/2 activation and PARP-1 cleavage measurements, cells were harvested in 1× Laemmli sample buffer and separated using 12% Laemmli SDS-polyacrylamide gels. To assess Bax translocation, cell lysates were separated into cytosolic, mitochondrial, and nuclear fractions using the Cell Fractionation Kit-Standard (MitoSciences; Eugene, Oreg.). […] Samples were boiled for 5 min and loaded onto 12% SDS-polyacrylamide gels. Western blotting was carried out as previously described (Valentine et al., 2010). Primary antibodies against pERK1/2, PARP-1, Bax (Cell Signaling Technology; Beverly, Mass.), actin (Sigma-Aldrich), and anti-rabbit-horseradish peroxidase secondary antibodies (Promega) were used according to the instructions of the manufacturer.

Row | Compound | MM1 cell invasion of HUVEC monolayers (MM1 hepatoma cells) | PARP-1 cleavage (PARP-1; LPA2-transduced MEF, Adriamycin or serum withdrawal) | PARP-1 cleavage (PARP-1; vector-transduced cells) | Bax translocation to the mitochondria (Bax; LPA2-transduced MEF, Adriamycin) | cytosolic Bax level (Bax; serum withdrawal model) | Bax translocation (Bax; vector-transduced MEF, Adriamycin)
1 | O=C(O)c1ccccc1SCCCN1C(=O)c2cccc3cccc(c23)C1=O [GRI977143] | significant increase | reduced PARP-1 cleavage | not observed | maintained a high level of Bax in the cytoplasm | did not detect any change in cytosolic Bax level | failed to reduce Bax translocation
2 | CCCCCCCC/C=C\CCCCCCCC(=O)OC[C@@H](O)COP(=O)(O)O [LPA 18:1, Lysophosphatidic acid (18:1)] | significant increase | – | – | – | – | –
